Source: patent US9962623B2, “Process to remove product alcohols from fermentation broth” (BUTAMAX ADVANCED BIOFUELS LLC, priority 2011, dated 2018)

Test system: yeast strain, Saccharomyces cerevisiae
Assay: Effect of disinfectant on cell viability
Format: cell-based
Settings: 5 mL cells mixed with 5 mL disinfectant solution
Description: A study was conducted to determine the effect of disinfectant on the viability of a yeast strain, Saccharomyces cerevisiae. The primary culture was prepared by incubating seed stock of the yeast in 10 mL tubes containing YPS media at 30° C. for 24 hours in an incubator shaker (Innova 4200, New Brunswick Scientific, Edison, N.J.). Klett flasks containing 50 mL broth were then inoculated with the aliquots of primary culture, and the flasks were incubated at 30° C. in an incubator shaker. The cells were grown until the Klett readings reached about 220. Dey-Engley neutralizing broth (DE broth) (Sigma-Aldrich Corp., St. Louis, Mo.) was used as the neutralizing dilution agent. […] Thin plates were also prepared with the DE broth/agar. […] Cells (5 mL) were mixed with 5 mL sterile PBS or 5 mL of the disinfectant solutions, and incubated for various time points (0.5, 1, 2.5, 5, or 10 minutes). […] After drying, the plates were inverted and incubated at 30° C. The black bar denotes the maximum detection limit of this test.

Measured: cell viability (cells counted on DE broth/agar plates)

CCO [70% alcohol, ethanol]
<10: 0.5 minutes incubation | 1 minute incubation | 2.5 minutes incubation | 5 minutes incubation | 10 minutes incubation
